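Results reflect a 48-hour exposure of cells in 96-well plates to compound at five concentrations. GI50 marks 50% less growth.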 Calls of active or inactive are those of the source. No stated cut-off is given here; in the data, active = GI50 up to about 1.1 µM and inactive = higher.
Legend:
Assay in all cases: NCI tumour cell line growth inhibition, 48 h
A498 = tested on: A498
A549 = tested on: A549
CAKI-1 = tested on: CAKI-1
EKVX = tested on: EKVX
HCC 2998 = tested on: HCC 2998
HL-60 = tested on: HL-60
HOP-92 = tested on: HOP-92
OVCAR-3 = tested on: OVCAR-3
OVCAR-4 = tested on: OVCAR-4
OVCAR-8 = tested on: OVCAR-8
RPMI-8226 = tested on: RPMI-8226
SF-268 = tested on: SF-268
SK-OV-3 = tested on: SK-OV-3
SW-620 = tested on: SW-620
Malme-3M = tested on: Malme-3M
RXF 393 = tested on: RXF 393
SK-MEL-2 = tested on: SK-MEL-2

Measured: GI50

NC12CC3CC(C1)CC(C(=O)O)(C3)C2
inactive: A498 > 100 µM | A549 > 100 µM | CAKI-1 > 100 µM | EKVX > 100 µM | HCC 2998 > 100 µM | HL-60 > 100 µM | HOP-92 > 100 µM | OVCAR-3 > 100 µM | OVCAR-4 > 100 µM | OVCAR-8 > 100 µM | RPMI-8226 > 100 µM | SF-268 > 100 µM | SK-OV-3 > 100 µM | SW-620 > 100 µM

O=C1CC(c2c[nH]c3ccccc23)C(=O)N1c1ccccc1 (stereo not drawn)
inactive: A498 > 100 µM | A549 > 100 µM | CAKI-1 > 100 µM | EKVX > 100 µM | HCC 2998 > 100 µM | HL-60 > 100 µM | Malme-3M > 100 µM | OVCAR-3 > 100 µM | OVCAR-4 > 100 µM | OVCAR-8 > 100 µM | RPMI-8226 > 100 µM | RXF 393 > 100 µM | SK-MEL-2 > 100 µM | SK-OV-3 > 100 µM | SW-620 > 100 µM

O=C1NC2(O)c3ccccc3C(=O)C2(O)N1c1ccccc1 (stereo not drawn)
inactive: A549 > 100 µM | CAKI-1 > 100 µM | EKVX > 100 µM | HCC 2998 > 100 µM | HL-60 > 100 µM | HOP-92 > 100 µM | Malme-3M > 100 µM | OVCAR-3 > 100 µM | OVCAR-4 > 100 µM | OVCAR-8 > 100 µM | RPMI-8226 > 100 µM | SF-268 > 100 µM | SK-MEL-2 > 100 µM | SK-OV-3 > 100 µM | SW-620 > 100 µM

CCOC(=O)/C([O-])=C(\C(=O)OCC)[n+]1c(C)n(C)c2ccccc21
inactive: A498 > 100 µM | A549 > 100 µM | CAKI-1 > 100 µM | EKVX > 100 µM | HCC 2998 > 100 µM | HL-60 > 100 µM | Malme-3M > 100 µM | OVCAR-3 > 100 µM | OVCAR-4 > 100 µM | OVCAR-8 > 100 µM | RPMI-8226 > 100 µM | RXF 393 > 100 µM | SF-268 > 100 µM | SK-MEL-2 > 100 µM | SK-OV-3 > 100 µM | SW-620 > 100 µM

CCN1C(=O)C(N=[N+]=[N-])(c2ccccc2)C(=O)c2ccccc21 (stereo not drawn)
inactive: A549 55.8 µM | CAKI-1 > 100 µM | EKVX 32.9 µM | HCC 2998 > 100 µM | HL-60 21.6 µM | HOP-92 31.4 µM | Malme-3M 67 µM | OVCAR-3 56.8 µM | OVCAR-4 59 µM | RPMI-8226 35.6 µM | RXF 393 99.1 µM | SF-268 83.2 µM | SK-MEL-2 > 100 µM | SK-OV-3 > 100 µM | SW-620 > 100 µM

Cc1nc(-n2nc(-c3ccccc3)cc2-c2ccccc2)sc1C(=O)/C=C/c1ccc(/C=C/C(=O)c2sc(-n3nc(-c4ccccc4)cc3-c3ccccc3)nc2C)cc1
inactive: A549 39 µM | CAKI-1 22.2 µM | EKVX 46.5 µM | HCC 2998 20.1 µM | HL-60 32.9 µM | Malme-3M 19.1 µM | OVCAR-3 20.8 µM | OVCAR-4 35.2 µM | OVCAR-8 32.8 µM | RXF 393 22.8 µM | SF-268 23.2 µM | SK-MEL-2 22.1 µM | SK-OV-3 > 100 µM | SW-620 34.8 µM

O=C(c1nc2ccccc2nc1O)C(O)c1ccco1 (stereo not drawn)
inactive: A549 > 100 µM | EKVX > 100 µM | HCC 2998 > 100 µM | HL-60 > 100 µM | HOP-92 > 100 µM | Malme-3M > 100 µM | OVCAR-3 > 100 µM | OVCAR-4 > 100 µM | OVCAR-8 > 100 µM | RPMI-8226 > 100 µM | RXF 393 > 100 µM | SF-268 > 100 µM | SK-MEL-2 > 100 µM | SK-OV-3 > 100 µM | SW-620 > 100 µM

O=C(Nc1cccc2c1C(=O)c1c(NC(=O)c3ccccc3)ccc(Nc3cccc4c3C(=O)c3ccccc3C4=O)c1C2=O)c1ccccc1
inactive: A498 > 100 µM | A549 > 100 µM | CAKI-1 > 100 µM | EKVX > 100 µM | HCC 2998 > 100 µM | HL-60 > 100 µM | Malme-3M > 100 µM | OVCAR-3 > 100 µM | OVCAR-4 > 100 µM | OVCAR-8 > 100 µM | RPMI-8226 > 100 µM | RXF 393 59.4 µM | SF-268 > 100 µM | SK-MEL-2 > 100 µM | SK-OV-3 > 100 µM | SW-620 > 100 µM

CCSC(=O)C1(C)OC2CCCCC2C1=O (stereo not drawn)
inactive: A498 > 100 µM | A549 > 100 µM | CAKI-1 > 100 µM | HCC 2998 > 100 µM | HL-60 > 100 µM | Malme-3M > 100 µM | OVCAR-4 > 100 µM | OVCAR-8 > 100 µM | RPMI-8226 > 100 µM | RXF 393 > 100 µM | SF-268 > 100 µM | SK-MEL-2 > 100 µM | SK-OV-3 > 100 µM | SW-620 > 100 µM

O=C1CCC2(CCC(=O)NC2=O)C(=O)N1
inactive: A549 > 100 µM | EKVX > 100 µM | HCC 2998 > 100 µM | HL-60 > 100 µM | Malme-3M > 100 µM | OVCAR-3 > 100 µM | OVCAR-8 > 100 µM | RPMI-8226 > 100 µM | RXF 393 > 100 µM | SF-268 > 100 µM | SK-OV-3 > 100 µM | SW-620 > 100 µM

C=CCN1C2Cc3cc(OC)c(OC)cc3C1Cc1cc(OC)c(OC)cc12
inactive: A498 > 100 µM | A549 > 100 µM | CAKI-1 > 100 µM | EKVX > 100 µM | HCC 2998 > 100 µM | Malme-3M > 100 µM | OVCAR-3 > 100 µM | OVCAR-4 > 100 µM | OVCAR-8 > 100 µM | RPMI-8226 > 100 µM | SF-268 > 100 µM | SK-MEL-2 > 100 µM | SW-620 > 100 µM

C/C(CC(=O)Nc1ccc([N+](=O)[O-])cc1)=N/N=C(N)N
inactive: A549 > 100 µM | EKVX > 100 µM | HCC 2998 > 100 µM | HL-60 > 100 µM | HOP-92 > 100 µM | Malme-3M > 100 µM | OVCAR-3 > 100 µM | OVCAR-8 > 100 µM | RPMI-8226 > 10 µM | RXF 393 > 100 µM | SF-268 > 100 µM | SK-MEL-2 > 100 µM | SK-OV-3 > 100 µM | SW-620 > 100 µM

CCOP(=O)(C/C(=N/NC(C)(C)C)C(=O)Nc1nc2ccc(C)cc2s1)OCC
inactive: A498 > 100 µM | A549 > 100 µM | CAKI-1 > 100 µM | EKVX > 100 µM | HCC 2998 > 100 µM | HL-60 > 100 µM | Malme-3M > 100 µM | OVCAR-3 > 100 µM | OVCAR-4 > 100 µM | OVCAR-8 > 100 µM | RXF 393 > 100 µM | SF-268 > 100 µM | SK-MEL-2 > 100 µM | SK-OV-3 > 100 µM | SW-620 > 100 µM

— ChEMBL document CHEMBL1201862, “PubChem BioAssay data set” (2004)
